For assay [1], the target named is T1, atMnmM (atYtqB) (Arabidopsis thaliana, UniProt Q8GUP2).
T1 construct: gene At1g16445; residues 53-274, chloroplast signal peptide removed, codon-optimized, His-tagged, expressed in E. coli BL21(DE3)
T1 sequence (Q8GUP2 53-274): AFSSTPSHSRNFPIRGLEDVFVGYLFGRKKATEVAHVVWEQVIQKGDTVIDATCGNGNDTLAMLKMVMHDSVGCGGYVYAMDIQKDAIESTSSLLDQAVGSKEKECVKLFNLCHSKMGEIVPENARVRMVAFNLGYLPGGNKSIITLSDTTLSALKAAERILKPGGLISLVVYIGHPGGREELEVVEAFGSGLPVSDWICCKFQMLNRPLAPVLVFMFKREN
The experiment in a line: in vitro tRNA methylation, nucleoside HPLC / LC-MS. Format: biochemical. Conditions: 0.1 mM SAM, 20 uM enzyme, bulk tRNA from B. subtilis delta-ytqB (nm5s2U), pH 7.5, 37 C.

For assay [2], the target named is T2, osMnmM (osYtqB) (Oryza sativa, UniProt Q0DGU2).
T2 construct: gene Os05g0511700
T2 sequence (Q0DGU2 48-260): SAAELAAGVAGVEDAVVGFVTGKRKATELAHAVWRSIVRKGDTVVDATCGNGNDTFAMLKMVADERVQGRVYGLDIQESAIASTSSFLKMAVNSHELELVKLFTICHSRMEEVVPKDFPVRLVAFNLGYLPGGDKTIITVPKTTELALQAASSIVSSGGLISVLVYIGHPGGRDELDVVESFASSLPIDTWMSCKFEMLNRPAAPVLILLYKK
Conditions: 0.1 mM SAM, 20 uM enzyme, bulk tRNA from B. subtilis delta-ytqB (nm5s2U), pH 7.5, 37 C.

For `C[S+](CC[C@H](N)C(=O)O)C[C@H]1O[C@@H](n2cnc3c(N)ncnc32)[C@H](O)[C@@H]1O` (some centres unmarked) [SAM], the “in vitro tRNA methylation, nucleoside HPLC / LC-MS” value in assay [1] was “saMnmM, atMnmM, and osMnmM were capable of methylating the hypomodified tRNA substrates”; in assay [2], “saMnmM, atMnmM, and osMnmM were capable of methylating the hypomodified tRNA substrates”.

(Values after paper PMC9976899, “Identification of a novel 5-aminomethyl-2-thiouridine methyltransferase in tRNA modification” (Nucleic Acids Research, 2023).)
